# Test results reported in patent publication US10758534B2 (Vertex Pharmaceuticals Incorporated, priority 2014, dated 2020).
# Target: T1, F508del (Homo sapiens, UniProt P13569, DEL508-508)
# T1 construct: expressed in transfected cells
# Test: Protocol 1: membrane potential optical assay (FLIPR III, voltage sensing dye), identification of potentiator compounds
# Assay type: cell-based
# Settings: Table 3, compounds of Table 1
# Procedure, shortened: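 NIH 3T3 fibroblasts stably expressing F508del were cultured at 27° C for 24 hrs for temperature correction, then treated with compounds or DMSO and loaded with a voltage-sensing redistribution dye. Forskolin added with a Cl⁻ gradient activated the channel; membrane-potential fluorescence on FLIPR III reported increased gating.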
# T1 sequence (P13569 with tags, fused parts or gaps DEL508-508): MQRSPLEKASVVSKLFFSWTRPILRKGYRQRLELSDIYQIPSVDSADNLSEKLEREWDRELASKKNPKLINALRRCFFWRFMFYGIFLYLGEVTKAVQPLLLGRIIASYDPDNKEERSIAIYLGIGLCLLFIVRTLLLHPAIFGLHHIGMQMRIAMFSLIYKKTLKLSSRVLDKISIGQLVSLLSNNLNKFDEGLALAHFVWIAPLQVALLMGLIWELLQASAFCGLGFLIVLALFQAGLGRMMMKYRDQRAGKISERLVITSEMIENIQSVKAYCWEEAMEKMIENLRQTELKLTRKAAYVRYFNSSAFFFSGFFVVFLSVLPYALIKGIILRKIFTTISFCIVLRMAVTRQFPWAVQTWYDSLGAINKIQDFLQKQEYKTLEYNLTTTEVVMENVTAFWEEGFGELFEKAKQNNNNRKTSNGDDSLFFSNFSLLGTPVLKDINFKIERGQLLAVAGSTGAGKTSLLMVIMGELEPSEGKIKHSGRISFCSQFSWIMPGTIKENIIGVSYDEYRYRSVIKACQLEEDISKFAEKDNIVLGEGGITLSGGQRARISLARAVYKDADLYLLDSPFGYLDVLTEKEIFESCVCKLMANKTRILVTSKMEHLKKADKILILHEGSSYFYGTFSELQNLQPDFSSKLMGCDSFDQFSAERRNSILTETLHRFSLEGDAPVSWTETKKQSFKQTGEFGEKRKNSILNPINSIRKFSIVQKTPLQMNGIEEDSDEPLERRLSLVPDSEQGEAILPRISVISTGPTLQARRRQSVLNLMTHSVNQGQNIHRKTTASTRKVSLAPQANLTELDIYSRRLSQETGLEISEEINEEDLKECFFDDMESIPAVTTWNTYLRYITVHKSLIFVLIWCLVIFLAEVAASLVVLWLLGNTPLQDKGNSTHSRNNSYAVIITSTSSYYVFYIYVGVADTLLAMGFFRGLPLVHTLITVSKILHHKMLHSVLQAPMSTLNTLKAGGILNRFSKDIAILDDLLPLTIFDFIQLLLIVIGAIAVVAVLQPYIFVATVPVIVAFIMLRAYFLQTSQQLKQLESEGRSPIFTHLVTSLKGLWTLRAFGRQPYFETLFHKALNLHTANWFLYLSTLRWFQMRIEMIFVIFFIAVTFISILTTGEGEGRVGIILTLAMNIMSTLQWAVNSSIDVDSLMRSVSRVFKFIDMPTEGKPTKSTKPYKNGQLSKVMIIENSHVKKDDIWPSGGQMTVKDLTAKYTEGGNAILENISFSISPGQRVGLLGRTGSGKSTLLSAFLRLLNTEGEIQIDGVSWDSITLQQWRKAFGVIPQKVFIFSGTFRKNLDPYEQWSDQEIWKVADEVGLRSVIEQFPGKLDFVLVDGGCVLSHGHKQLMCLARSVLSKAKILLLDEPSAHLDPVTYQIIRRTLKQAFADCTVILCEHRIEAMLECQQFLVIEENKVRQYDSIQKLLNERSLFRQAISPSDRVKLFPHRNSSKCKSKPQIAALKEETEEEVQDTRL
row,EC30,Structure (SMILES)
1,++ (“++” means between 3 uM and 10 uM),"COc1cc(C(C)=O)ccc1Oc1cccc(S(=O)(=O)NC(=O)c2cccnc2N2CC(C)CC2(C)C)n1 (centres unmarked) [Compound 1744, N—[[6-(4-acetyl-2-methoxy-phenoxy)-2-pyridyl]sulfonyl]-2-(2,2,4-trimethylpyrrolidin-1-yl)pyridine-3-carboxamide]"
2,+++ (“+++” means <3 uM),"CC1CC(C)CN(c2cccc(S(=O)(=O)NC(=O)c3cccnc3N3CC(C)CC3(C)C)n2)C1 (centres unmarked) [Compound 1749, N—[[6-(3,5-dimethyl-1-piperidyl)-2-pyridyl]sulfonyl]-2-(2,2,4-trimethylpyrrolidin-1-yl)pyridine-3-carboxamide]"
3,+++ (“+++” means <3 uM),"CC1CN(c2ncccc2C(=O)NS(=O)(=O)c2cccc(Oc3cccc4ccccc34)n2)C(C)(C)C1 (centres unmarked) [Compound 1751, N—[[6-(1-naphthyloxy)-2-pyridyl]sulfonyl]-2-(2,2,4-trimethylpyrrolidin-1-yl)pyridine-3-carboxamide]"
4,++ (“++” means between 3 uM and 10 uM),"C#CCOc1cccc(S(=O)(=O)NC(=O)c2cccnc2N2CC(C)CC2(C)C)n1 (centres unmarked) [Compound 1753, N-[(6-prop-2-ynoxy-2-pyridyl)sulfonyl]-2-(2,2,4-trimethylpyrrolidin-1-yl)pyridine-3-carboxamide]"
5,++ (“++” means between 3 uM and 10 uM),"CC1CN(c2ncccc2C(=O)NS(=O)(=O)c2cccc(N3CCCC(c4ccccc4)C3)n2)C(C)(C)C1 (centres unmarked) [Compound 1755, N—[[6-(3-phenyl-1-piperidyl)-2-pyridyl]sulfonyl]-2-(2,2,4-trimethylpyrrolidin-1-yl)pyridine-3-carboxamide]"
6,+++ (“+++” means <3 uM),"CC1CN(c2ncccc2C(=O)NS(=O)(=O)c2cccc(Nc3ccc(C(C)(C)C)cc3)n2)C(C)(C)C1 (centres unmarked) [Compound 1756, N—[[6-(4-tert-butylanilino)-2-pyridyl]sulfonyl]-2-(2,2,4-trimethylpyrrolidin-1-yl)pyridine-3-carboxamide]"
7,+++ (“+++” means <3 uM),"CC1CN(c2ncccc2C(=O)NS(=O)(=O)c2cccc(Nc3ccc(N(C)C)cc3)n2)C(C)(C)C1 (centres unmarked) [Compound 1757, N—[[6-[4-(dimethylamino)anilino]-2-pyridyl]sulfonyl]-2-(2,2,4-trimethylpyrrolidin-1-yl)pyridine-3-carboxamide]"

# Further lines, the compound ahead of its results:
row,Structure (SMILES),EC30
1,"C[C@@H]1CN(c2nc(-c3cccc(CO)c3)ccc2C(=O)NS(=O)(=O)c2cccnc2N)C(C)(C)C1 [Compound 1738, N-[(2-amino-3-pyridyl)sulfonyl]-6-[3-(hydroxymethyl)phenyl]-2-[(4S)-2,2,4-trimethylpyrrolidin-1-yl]pyridine-3-carboxamide]",+++ (“+++” means <3 uM)
2,"CCN(CC)c1cc(-c2ccc(C(=O)NS(=O)(=O)c3cccc(N)n3)c(N3C[C@@H](C)CC3(C)C)n2)cc(C)n1 [Compound 1739, N-[(6-amino-2-pyridyl)sulfonyl]-6-[2-(diethylamino)-6-methyl-4-pyridyl]-2-[(4S)-2,2,4-trimethylpyrrolidin-1-yl]pyridine-3-carboxamide]",+++ (“+++” means <3 uM)
3,"Cc1cc(-c2ccc(C(=O)NS(=O)(=O)c3cccc(N)n3)c(N3C[C@@H](C)CC3(C)C)n2)cnc1OCC(C)C [Compound 1741, N-[(6-amino-2-pyridyl)sulfonyl]-6-(6-isobutoxy-5-methyl-3-pyridyl)-2-[(4S)-2,2,4-trimethylpyrrolidin-1-yl]pyridine-3-carboxamide]",+++ (“+++” means <3 uM)
4,"CCOCCOc1ccn(-c2ccc(C(=O)NS(=O)(=O)c3cccnc3N)c(N3C[C@@H](C)CC3(C)C)n2)n1 [Compound 1742, N-[(2-amino-3-pyridyl)sulfonyl]-6-[3-(2-ethoxyethoxy)pyrazol-1-yl]-2-[(4S)-2,2,4-trimethylpyrrolidin-1-yl]pyridine-3-carboxamide]",+++ (“+++” means <3 uM)
5,"Cc1cn(-c2ccc(C(=O)NS(=O)(=O)c3ccc[nH]c3=O)c(N3C[C@@H](C)CC3(C)C)n2)nc1OCC(C)C [Compound 1743, 6-(3-isobutoxy-4-methyl-pyrazol-1-yl)-N-[(2-oxo-1H-pyridin-3-yl)sulfonyl]-2-[(4S)-2,2,4-trimethylpyrrolidin-1-yl]pyridine-3-carboxamide]",+++ (“+++” means <3 uM)
6,"CCOc1cc(C)cc(-c2ccc(C(=O)NS(=O)(=O)c3ccc[nH]c3=O)c(N3C[C@@H](C)CC3(C)C)n2)n1 [Compound 1745, 6-(6-ethoxy-4-methyl-2-pyridyl)-N-[(2-oxo-1H-pyridin-3-yl)sulfonyl]-2-[(4S)-2,2,4-trimethylpyrrolidin-1-yl]pyridine-3-carboxamide]",+++ (“+++” means <3 uM)
7,"CC(C)COc1cc(F)cc(-c2ccc(C(=O)NS(=O)(=O)c3cccc(N)n3)c(N3CC4(CC4)CC3(C)C)n2)c1 [Compound 1746, N-[(6-amino-2-pyridyl)sulfonyl]-2-(5,5-dimethyl-6-azaspiro[2.4]heptan-6-yl)-6-(3-fluoro-5-isobutoxy-phenyl)pyridine-3-carboxamide]",+++ (“+++” means <3 uM)
8,"COc1ccc(-c2ccc(C(=O)NS(=O)(=O)c3cccnc3N)c(N3C[C@@H](C)CC3(C)C)n2)cc1C [Compound 1747, N-[(2-amino-3-pyridyl)sulfonyl]-6-(4-methoxy-3-methyl-phenyl)-2-[(4S)-2,2,4-trimethylpyrrolidin-1-yl]pyridine-3-carboxamide]",+++ (“+++” means <3 uM)
9,"COc1cc(-c2ccc(C(=O)NS(=O)(=O)c3cccc(N)n3)c(N3C[C@@H](C)CC3(C)C)n2)cc(C)n1 [Compound 1748, N-[(6-amino-2-pyridyl)sulfonyl]-6-(2-methoxy-6-methyl-4-pyridyl)-2-[(4S)-2,2,4-trimethylpyrrolidin-1-yl]pyridine-3-carboxamide]",+++ (“+++” means <3 uM)
10,"CC(C)COc1cc(F)cc(-c2ccc(C(=O)NS(=O)(=O)c3ccc(O)cc3)c(N3C[C@@H](C)CC3(C)C)n2)c1 [Compound 1750, 6-(3-fluoro-5-isobutoxy-phenyl)-N-(4-hydroxyphenyl)sulfonyl-2-[(4S)-2,2,4-trimethylpyrrolidin-1-yl]pyridine-3-carboxamide]",+++ (“+++” means <3 uM)
11,"COc1ccc(OC)c(-c2ccc(C(=O)NS(=O)(=O)c3ccc[nH]c3=O)c(N3C[C@@H](C)CC3(C)C)n2)c1 [Compound 1752, 6-(2,5-dimethoxyphenyl)-N-[(2-oxo-1H-pyridin-3-yl)sulfonyl]-2-[(4S)-2,2,4-trimethylpyrrolidin-1-yl]pyridine-3-carboxamide]",++ (“++” means between 3 uM and 10 uM)
12,"CC(C)COc1cc(F)cc(-c2ccc(C(=O)NS(=O)(=O)c3cccc(N)n3)c(N3CC(C)CC34CC4)n2)c1 (centres unmarked) [Compound 1754, N-[(6-amino-2-pyridyl)sulfonyl]-6-(3-fluoro-5-isobutoxy-phenyl)-2-(5-methyl-7-azaspiro[2.4]heptan-7-yl)pyridine-3-carboxamide]",+++ (“+++” means <3 uM)
13,"Cc1cn(-c2ccc(C(=O)NS(=O)(=O)c3cccnc3N)c(N3C[C@@H](C)CC3(C)C)n2)nc1OCC(C)C [Compound 1758, N-[(2-amino-3-pyridyl)sulfonyl]-6-(3-isobutoxy-4-methyl-pyrazol-1-yl)-2-[(4S)-2,2,4-trimethylpyrrolidin-1-yl]pyridine-3-carboxamide]",+++ (“+++” means <3 uM)
